According to article PMC12668289 (RSC Chemical Biology, 2025):

How the values were obtained:
Pmluc-N230S = assay: BL emission spectra of luciferase-luciferin reactions; type: biochemical, Pyrocoelia miyako; settings: 100 mM HEPES pH 8.0, 25 °C
Method: were selected to investigate their BL emission spectra with luciferases including Fluc, SLR, Pmluc-WT, Pmluc-N230S using an integrating sphere-based multichannel spectrometer with a charge-coupled device (CCD) detector.
The reactions were initiated by mixing 25 µl of premixed solution of luciferases/D-LH 2 analogues with 125 µl of 3 mM ATP and 6 mM MgCl2 in 100 mM HEPES-NaOH (pH 8.0).

SLR = assay: Stability of BL signals (half-time of light emission); type: biochemical, Phrixothrix hirtus; settings: compared to 2a
Method: 1.5 Bioluminescence characterizations
Reactions of luciferases, including Photinus pyralis luciferase (Fluc), Phrixothrix hirtus luciferase (SLR), Pyrearinus termitilluminans […]
mM D-LH 2 analogues, 3 mM ATP, 6 mM MgCl2, and 10 µM luciferase in 0.2 ml of 100 mM HEPES-NaOH pH 8.0. The bioluminescence (BL) emission characteristics were recorded using a microplate reader in a BL mode (Thermo Scientific, Varioskan, LUX multimode). A digital single-lens reflex (DSLR) camera (Nikon D80, CCD sensor) with a 30-second exposure period was used to capture the BL images. […]

Row | Compound | Bioluminescence wavelength (BLλ) (Pmluc-N230S) [nm] | BL half-life (t1/2) longer than that of 2a (SLR)
1 | O=C(O)[C@H]1CSC(c2nc3ccc(O)cc3s2)=N1 [Compound 2a, D-luciferin, reference compound] | 614 | 
2 | Cc1cc2nc(C3=N[C@@H](C(=O)O)CS3)sc2cc1O [Compound 2b, 5’-methyl-D-luciferin] |  | about 1.5 fold
